Three compounds from patent US20180353445A1, “METHODS AND COMPOSITIONS RELATING TO PROTEASOME INHIBITOR RESISTANCE” (Whitehead Institute for Biomedical Research, priority 2017, published 2018) can be followed below.

Structures are written as SMILES. “Also recorded” adds a separate entry of the source.

One experiment addresses T1, FDX1 (Homo sapiens, UniProt P10109).
T1 construct: made in house
T1 sequence (P10109 62-184): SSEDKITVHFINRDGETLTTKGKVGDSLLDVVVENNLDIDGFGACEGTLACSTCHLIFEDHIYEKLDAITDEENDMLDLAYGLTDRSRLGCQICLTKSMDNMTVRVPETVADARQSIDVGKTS
The experiment in a line: In vitro Fe-S cluster assembly with reduced FDX1 (absorbance at 456 nm). The class given is biochemical. The following applies: x5 concentration relative to enzyme. An excerpt:
FIGS. 47A-47C: Inhibition of Fe—S formation by elesclomol and variants (in-vitro). […] Note: “x(number) concentration” means that the indicated compound was present at 5 times the concentration of the enzyme.
(FIG. 53A) provides a schematic describing mitochondrial Fe—S cluster biosynthesis. The mitochondrial ISC (iron-sulfur cluster) core complex contains the scaffold protein ISCU and cysteine desulfurase (ACP-ISD11-NFS1)2. The latter catalyzes the conversion of cysteine to alanine and generates S° for iron sulfur cluster assembly. S° is reduced by FDX1. A [2Fe-2S] cluster is subsequently formed on ISCU. […] In vitro Fe—S cluster assembly was carried out with reduced. FDX1 as the reducing agent in the presence or absence of either 5× (green) or 10× (yellow) elesclomol (both relative to FDX1). Fe—S cluster formation was monitored by following the increase of absorbance at 456 nm. […] The red triangle denotes an NMR peak that became severely broadened. […] The [2Fe-2S] cluster in FDX1 is indicated by spheres.
The in vitro Fe—S cluster assembly was carried out with reduced FDX1 as the reducing agent and detected by following the increase of absorbance at 456 tun following the addition of either of 5× (green) or 10× (yellow, both relative to FDX1) compound-1. […] Fe—S formation was monitored by following the increase of absorbance at 456 nm. […] Cysteine desulfurase activity assay carried out with the indicated concentrations of elesclomol.

The subject of experiment [1] is T47D cells harboring a doxycycline inducible PSMD2 KD shRNA construct. The experiment in a line: Viability of PSMD2 knockdown versus control T47D cells, dose response and combinations (CellTiter-Glo). The following applies: T47D, transient PSMD2 suppression versus control. The experiment is classed as cell-based, human. On the procedure: Cell viability was measured by CellTiter-Glot Luminescent Cell Viability Assay 72 hours after addition of the compounds to cells.
Cell viability was measured by CellTiter-Glo® Luminescent Cell Viability Assay 72 hours after addition of the compounds were added to cells.
Cell viability was measured by CellTiter-Glolk Luminescent Cell Viability Assay 72 hours after addition of the compounds to cells.
To directly test whether altered cellular metabolism can modulate the sensitivity of cancer cells to proteasome inhibitors, we engineered the breast cancer cell line T47D into Lo19S and increased OXPHOS states. Initially, we reconstituted the Lo19S state by transient suppression of the PSMD2 subunit of the 19S complex using an inducible shRNA.
To induce a high OXPHOS (Hi-OXPHOS) state, we changed the carbon source in the cell culture media from glucose to galactose, which is poorly fermentable. This method has been previously shown to drive glutamine utilization by mitochondria and to thus increase mitochondrial respiration (Gohil et al., 2010). […] We reasoned that the Hi-OXPHOS signature we identified in Lo19S patient tumors may cooperate with the Lo19S state to further promote the ability of the cells to withstand proteotoxic stress.
Cell viability—where indicated relative cell number following different drug treatment was conducted by plating cells at 1000 cells/well in 384 well plates. Indicated concentrations of compounds were added 24 hour after plating at least in triplicate for each condition. Viability was measured 72 hours after drug addition using cell titer-glo (Promega) according to manufactures protocol. Same protocol was applied for the experiments conducted for the Lo19S T47D, MCF7 and T47D in the context of altered carbon source only the cells were plated at 1000 cells/well in RPMI media (without glucose and with dialyzed serum) containing either 10 mM Glucose or lOmM galactose.

In experiment [2] the test system is T47D cells. The experiment is described as follows: Cell viability, T47D cells with doxycycline-inducible PSMD2 shRNA (KD) vs control. The conditions noted are these: T47D cells, PSMD2 KD vs control. The experiment is classed as cell-based, human. As for the experimental part:
FIGS. 37A-37E: Subunit suppression results in highly specific drug sensitivity alteration. Schematic representation of the drug screen setup. (FIG. 37A) 147D cells harboring a doxycycline-inducible PSMD2 shRNA were grown in the presence or absence of doxycycline for 48 hr. Cells were then collected, washed, and plated in the absence of doxycycline for 24 hr prior to exposure different compounds. Relative cell numbers were measured 3 days later. […] (FIGS. 37C-37E) The relative viability of the PSMD2 knockdown (KD) versus the control was calculated for replica experiments and the log2 of the ratio is plotted for 349 compounds from the Selleck anti-cancer L3000 drug library that were tested in 4 concentrations (FIG. 37C), the Selleck natural product library (NPC) comprising 502 compounds in 5 doses (FIG. 37D), and the NIH bioactive compound library that includes 731 compounds in 4 doses (FIG. 37E). Specific compounds are annotated.
The effect of transient PSMD2 reduction on growth of T47D cells in the presence of different proteasome inhibitors (bortezomib, MLN9708, carfilzomib, oprozornib) was tested. T47D cells harboring a doxycycline inducible control shRNA (GFP) or a doxycycline-inducible PSMD2 shRNA (TurhoRFP) were incubated with doxycycline for 3 days. Cells were then split and grown in the absence of Dox and proteasome inhibitors were then added at various concentrations. Cells were maintained in culture and then counted.
For the generation of the T47D Tet-inducible PSMD2 knockdown cell line- the TRIPZ vector with an inducible shRNA targeting PSMD2 was purchased from Dhannacon (clone V3THS_403760). It was introduced to the T47D cells according to manufactures protocol and cells were selected with puromycin 1 μg/ml for one week. The cells were exposed to doxycycline for 24 hours and cells were FACS sorted for the top 10% of most RFP expressing cells (highest expression of shRNA). The cells were further cultured in the absence of doxycycline and PSMD2 knockdown was induced as specified in the relevant Examples. The TRIPZ control GFP vector was created by removing the turboRFP from the TRIPZ control vector by digestion with Agel and ClaI and replacing it with GFP amplified with primers flanking with Agel and Clal restriction sites.
Cell Viability Assay—Relative cell growth and survival were measured in 96-well microplate format in the shRNA experiments and in 384 well format in the drug toxicity assays, by using the fluorescent detection of resazurin dye reduction as an endpoint (544 nm excitation and 590 run emission). 2,500 cells in 96 wells format or 1,000 cells in 384 well format were plated 24 hours before compound exposure (for 72 hours or indicated time). Each analysis was performed at least with three replicas.

The subject of experiment [3] is T47D cells. The experiment in a line: The glucose/galactose drug screen. The experiment is classed as cell-based, human. The conditions noted are these: 10 mM Glucose or Galactose, Selleck anti cancer and natural product libraries. On the procedure:
We conducted a second set of drug screens to identify unique sensitivities conferred by the Hi-OXPHOS state using parental T47D breast cancer cells (without 19S subunit suppression). For this screen, we used the NPC and CDL libraries as they contained the greatest number of hits in the Lo19S screen. We tested over 800 compounds at multiple concentrations and measured their effects on relative cell growth/viability when cells were grown under aerobic glycolysis conditions (glucose-supplemented medium) or forced mitochondrial respiration conditions (galactose-supplemented medium).
The glucose/galactose drug screen—T47D cells growing in regular media were collected counted and after centrifugation cells were re-suspended in RPM1 media without glucose containing 10% dialyzed serum with the addition of either 10 mM glucose or 10 mM galactose, Cells were then plated at 1000 cells/well in 384-well opaque, white assay plates (Coming, N.Y.), 50 uL per well, and incubated overnight at 37°C./5% CO2. Application of the drug libraries and cell viability was executed as described above for the Lo19S drug screen.

The test system of experiment [4] is MCF7, HEK293 and T47D cells. The experiment in a line: Viability of cells grown in glucose (glycolytic) vs galactose (Hi-OXPHOS). The conditions noted are these: screen. The class given is cell-based, human. As for the experimental part: FIGS. 40A-40D: Cancer cell metabolism alters sensitivity to elesclomol.
FIGS. 41A-41B: Cancer cell metabolism alters sensitivity to elesclomol.
FIGS. 51A-51D: Elesclomol preferentially targets cells in the Hi-OXPHOS state. […] The relative cell growth (color coded) was analyzed 72 hours post compound addition. Plotted are the mean SD of at least three replicas and the calculated EC50s (FIGS. 51B-51C). […] Reactive groups are indicated with a colored circle.
FIGS. 57A-57C: Elesclomol preferentially targets cells in the Hi-OXPHOS state. […] Analogs named compound 1-6. […] Plotted are the mean SD of at least three replicas and the calculated EC50s (FIG. 57A and FIG. 57C).

With `CN(NC(=O)CC(=O)NN(C)C(=S)c1ccccc1)C(=S)c1ccccc1` [SAT-4783], the “in vitro formation of Fe-S clusters mediated by FDX1” value at FDX1 is “inhibition”. As for `CC(C)C[C@H](NC(=O)CNC(=O)c1cc(Cl)ccc1Cl)B(O)O` [ixazomib], the “increase of proliferation inhibition EC50 on inducing the Lo19S state” value in experiment [1] is given as ~4 fold. In the experiment with T47D cells [2], the “fold increase in EC50 induced by transient PSMD2 knockdown (KD)” value is listed as 50-100 fold. Turning to `O=C(/C=C/c1cccnc1)NCCCCC1CCN(C(=O)c2ccccc2)CC1` [APO866], the “relative viability change of cells grown in glucose versus galactose” value with T47D cells [3] is reported as “predominantly more sensitive; also recorded: strongest hits in this screen”. Moreover, the “targeting of glycolytic cancer cells” value in experiment [4] is “preferentially targets glycolytic cancer cells”.
